According to patent US10351586B2, “Cytidine derivative dimers and applications thereof” (CHANGZHOU FANGYUAN PHARMACEUTICAL CO., LTD, priority 2014, dated 2019):
Marks after values point to notes of the source that are not given here.

Key:
[1] = system: HCT-116 human colon cancer xenografts; experiment: Tumor growth inhibition of HCT-116 human colon cancer xenografts in nude mice; type: in vivo, Balb/c nude mice; settings: for Relative tumor proliferation rate (T/C %) / Relative tumor volume (RTV) / Tumor growth inhibition rate (TGI %) / Tumor volume of HCT-116 human colon cancer xenografts: single IP injection (QD×1), D1 and D2 400 mg/kg, D3 350 mg/kg, D4 300 mg/kg; for Tumor volume of HCT-116 human colon cancer xenografts: Mean±SEM
Description: 2. Preparation of the test substance was performed by dissolving the test substance using the following solvents:
3. Animal experiments were performed. […] Animals were numbered using their tail number.
4.1 Tumor cells were human HCT-116 colon cancer cells purchased from the Institute of Cell Biology, Chinese Academy of Sciences (Beijing, China). F-12 medium (containing 10% FBS) was used to culture cells in a carbon dioxide incubator at about 37° C., saturated humidity, under 5% CO2 and 95% air. Before inoculation, cells in logarithmic growth phase were collected. After digested by 0.25% trypsin, the cells were washed with PBS once. The cells were resuspended with serum-free medium and counted. Serum-free medium were used for cell resuspension, until the cell concentration was adjusted to about 3×10^7 cell/mL.
4.2 Animal inoculation and grouping were performed.
The diameters (D) of the tumor nodules were measured three times a week with a circle sizer ruler. In addition, the following formula was applied to calculate the volume of the tumor nodules (V): V=[…](D/2)^3 generally for a spherical shape. Evaluation indexes of antitumor activity were tumor growth inhibition rate TGI (%) and relative tumor proliferation rate T/C (%).
The calculation formula of TGI was: TGI (%)=(Vcontrol−VTreatment)/Vcontrol)×100%. The relative tumor volume (RTV) was calculated by: RTV=Vt/V0, where V0 is the tumor volume at the time of group administration, and Vt is the tumor volume at the time of measurement.
The mice were weighed 3 times every week.
4.5 Data and statistical analysis were provided.

[2] = Body weight / toxicity of a single intraperitoneal injection in HCT-116 colon tumor-bearing nude mice; settings: for Average rate of weight change of the animals / Average weight of the animals: single IP injection (QD×1), D1 and D2 400 mg/kg, D3 350 mg/kg, D4 300 mg/kg; for Average weight of the animals: Mean±SEM
Description: Corresponding test substance was weighed and put into a 5 mL glass tube. The test substance was dissolved in ethanol under the stirring by a 5 mm magnetic stirrer. After a complete dissolution, Cremophor EL was added with continuous stirring. Immediately prior to the user of the test substance, the labeled amount of physiological saline was added and stirred.
Animal experiments were performed. The animals were female Balb/c nude mice at specific pathogen free (SPF) level and were supplied from Shanghai Sippr/BK Lab Animal Ltd. (Shanghai, China). […] These animals were at the age of about 7 weeks to about 9 weeks at the beginning of the experiments and had the weight of about 18 grams to about 22 grams at the beginning of the experiment. The animals had acclimatization duration of about 5 days to about 7 days. Animals were numbered using their tail number. The animal room was maintained at about 23±2° C., 40%-70% humidity, with alternating light and dark every 12 hours.
4.2 Animal inoculation and grouping were performed. Under aseptic conditions, each nude mice was injected with 0.1 mL cell suspension into the right hind leg subcutaneously (3×10^6 cell/mouse). When the size of the tumor grew to have a volume of about 60-150 mm^3, nude mice with a similar tumor size and a desirable shape (e.g., with substantially same shape such as a substantially spherical shape, without having irregular shapes or multiple tumors grouped together) were selected and grouped. In the experiment, there were six mice in each group.
The mice in control group were injected with a mixed solution including ethanol, Cremophor EL and normal saline at a ratio of 5:5:90.
4.4 Clinical symptoms were provided. All clinical symptoms of each animal were recorded at the beginning of the experiments and during the experiments. The observation was performed at the same time every day.
After administration of the test substance, when the weight reduction was >20%, when the animal was dying, or when the tumor volume exceeds about 2800 mm^3, the animal were euthanized by applying CO2. The tumor was separated and weighed, an autopsy was performed, and visual inspection was conducted and recorded on whether there were pathological changes in the organs.

[3] = D1 400 mg/kg Day 7, D2 400 mg/kg Day 9, D3 350 mg/kg Day 11, D4 300 mg/kg Day 11, single IP

## CCCCOC(=O)Nc1ccn(C2OC(COC(=O)CCCC(=O)OC[C@H]3O[C@@H](n4ccc(NC(=O)OCCCC)nc4=O)C(F)(F)[C@@H]3OC(=O)OCCCC)C(OC(=O)OCCCC)C2(F)F)c(=O)n1 (stereo in doubt) [Compound D1, 1,5-di-[4-N-(n-butyloxycarbonyl)-3′-O-(n-butoxycarbonyl)-2′-deoxy-2′,2′-difluoro-cytidine]glutarate]
[1]; [3]
  Relative tumor proliferation rate, minimum: 28.36%
  Tumor inhibition rate, maximum: 91.49%
[1]; Day 0
  Relative tumor proliferation rate (T/C %): 0.00%
  Relative tumor volume (RTV): 1.00
  Tumor growth inhibition rate (TGI %): 0.00%
  Tumor volume of HCT-116 human colon cancer xenografts: 39.36 ± 6.16** mm^3
[1]; Day 1
  Relative tumor proliferation rate (T/C %): 80.13%
  Relative tumor volume (RTV): 1.35 ± 0.24
  Tumor growth inhibition rate (TGI %): 67.76%
  Tumor volume of HCT-116 human colon cancer xenografts: 58.20 ± 17.45** mm^3
[1]; Day 2
  Relative tumor proliferation rate (T/C %): 65.15%
  Relative tumor volume (RTV): 1.35 ± 0.24
  Tumor growth inhibition rate (TGI %): 73.77%
  Tumor volume of HCT-116 human colon cancer xenografts: 58.20 ± 17.45** mm^3
[1]; Day 4
  Relative tumor proliferation rate (T/C %): 32.20%
  Relative tumor volume (RTV): 0.89 ± 0.12
  Tumor growth inhibition rate (TGI %): 87.46%
  Tumor volume of HCT-116 human colon cancer xenografts: 37.24 ± 9.27** mm^3
[1]; Day 7
  Relative tumor proliferation rate (T/C %): 28.36%
  Relative tumor volume (RTV): 1.16 ± 0.79
  Tumor growth inhibition rate (TGI %): 91.49%
  Tumor volume of HCT-116 human colon cancer xenografts: 36.82 ± 28.63** mm^3
[1]; Day 9
  Relative tumor proliferation rate (T/C %): 28.77%
  Relative tumor volume (RTV): 1.61 ± 0.98
  Tumor growth inhibition rate (TGI %): 91.42%
  Tumor volume of HCT-116 human colon cancer xenografts: 50.63 ± 36.49** mm^3
[1]; Day 11
  Relative tumor proliferation rate (T/C %): 34.47%
  Relative tumor volume (RTV): 3.18 ± 2.18
  Tumor growth inhibition rate (TGI %): 89.65%
  Tumor volume of HCT-116 human colon cancer xenografts: 101.02 ± 78.57** mm^3
[1]; Day 14
  Relative tumor proliferation rate (T/C %): 64.15%
  Relative tumor volume (RTV): 8.88 ± 6.75
  Tumor growth inhibition rate (TGI %): 80.16%
  Tumor volume of HCT-116 human colon cancer xenografts: 285.66 ± 237.94* mm^3
[1]; Day 16
  Relative tumor proliferation rate (T/C %): 89.47%
  Relative tumor volume (RTV): 15.44 ± 11.56
  Tumor growth inhibition rate (TGI %): 72.62%
  Tumor volume of HCT-116 human colon cancer xenografts: 495.95 ± 408.8** mm^3
[1]; Day 18
  Relative tumor proliferation rate (T/C %): 106.69%
  Relative tumor volume (RTV): 20.37 ± 13.96
  Tumor growth inhibition rate (TGI %): 67.62%
  Tumor volume of HCT-116 human colon cancer xenografts: 647.07 ± 503.28** mm^3
[1]; Day 21
  Relative tumor proliferation rate (T/C %): 138.14%
  Relative tumor volume (RTV): 32.34 ± 20.40
  Tumor growth inhibition rate (TGI %): 58.38%
  Tumor volume of HCT-116 human colon cancer xenografts: 1017.61 ± 749.53 mm^3
[1]; Day 23
  Relative tumor proliferation rate (T/C %): 163.55%
  Relative tumor volume (RTV): 32.34 ± 20.40
  Tumor growth inhibition rate (TGI %): 56.91%
  Tumor volume of HCT-116 human colon cancer xenografts: 1017.61 ± 749.53 mm^3
[1]; Day 25
  Relative tumor proliferation rate (T/C %): 155.09%
  Relative tumor volume (RTV): 33.53 ± 19.21
  Tumor growth inhibition rate (TGI %): 59.56%
  Tumor volume of HCT-116 human colon cancer xenografts: 1044.35 ± 722.80 mm^3
[1]; Day 28
  Relative tumor proliferation rate (T/C %): 198.76%
  Relative tumor volume (RTV): 42 ± 22
  Tumor growth inhibition rate (TGI %): 51.78%
  Tumor volume of HCT-116 human colon cancer xenografts: 1296.79 ± 847.87 mm^3
[1]; Day 30
  Relative tumor proliferation rate (T/C %): 209.10%
  Relative tumor volume (RTV): 51.88 ± 24.88
  Tumor growth inhibition rate (TGI %): 43.36%
  Tumor volume of HCT-116 human colon cancer xenografts: 1589.29 ± 983.15 mm^3
[2]; D1 400 mg/kg, single IP, Day 4
  Body weight after drug administration (in words): significantly decreased
[2]; Day 0
  Average rate of weight change of the animals: 0.00%
  Average weight of the animals: 19.98 ± 0.49 g
[2]; Day 1
  Average rate of weight change of the animals: −2.55 ± 0.77%
  Average weight of the animals: 19.48 ± 0.58 g
[2]; Day 2
  Average rate of weight change of the animals: −12.18 ± 2.63 %
  Average weight of the animals: 17.45 ± 0.81 g
[2]; Day 4
  Average rate of weight change of the animals: −18.58 ± 4.66 %
  Average weight of the animals: 16.15 ± 1.08 g
[2]; Day 7
  Average rate of weight change of the animals: −4.23 ± 3.77%
  Average weight of the animals: 19.80 ± 1.40 g
[2]; Day 9
  Average rate of weight change of the animals: 0.42 ± 1.92%
  Average weight of the animals: 20.75 ± 1.05 g
[2]; Day 11
  Average rate of weight change of the animals: 2.77 ± 4.27%
  Average weight of the animals: 21.25 ± 1.55 g
[2]; Day 14
  Average rate of weight change of the animals: 3.29 ± 3.29%
  Average weight of the animals: 21.35 ± 1.35 g
[2]; Day 16
  Average rate of weight change of the animals: 5.24 ± 2.74%
  Average weight of the animals: 21.75 ± 1.25 g
[2]; Day 18
  Average rate of weight change of the animals: 12.70 ± 4.20 %
  Average weight of the animals: 23.30 ± 1.60 g
[2]; Day 21
  Average rate of weight change of the animals: 7.90 ± 2.90 %
  Average weight of the animals: 22.30 ± 1.30 g
[2]; Day 23
  Average rate of weight change of the animals: 9.32 ± 3.82 %
  Average weight of the animals: 22.60 ± 1.50 g
[2]; Day 25
  Average rate of weight change of the animals: 12.20 ± 4.70%
  Average weight of the animals: 23.20 ± 1.70 g
[2]; Day 28
  Average rate of weight change of the animals: 15.14 ± 3.64%
  Average weight of the animals: 23.80 ± 1.50 g
[2]; Day 30
  Average rate of weight change of the animals: 14.22 ± 2.22%
  Average weight of the animals: 23.60 ± 1.20 g
